Measurements: patent US5629347A, “Aromatic compounds, pharmaceutical compositions containing them and their use in therapy” (Merck Sharp & Dohme Ltd., priority 1991, dated 1997)
pIC50: −log10 of the molar value. Structures can show the parent of a compound that is named as a salt.

Biological target: human NK1R (Homo sapiens, UniProt P25103)
Assay: biochemical
Format: binding
Conditions: displacement of 125I-substance P; human NK1R in COS or CHO cells
Protocol: To express the cloned human neurokinin-1-receotor (NK1R) transiently in COS, the cDNA for the human NK1R was cloned into the expression vector pCDM9 which was derived from pCDM8 (INVITROGEN) by inserting the ampicillin resistance gene (nucleotide 1973 to 2964 from BLUESCRIPT SK+ (trademark, […], La Jolla, Calif., U.S.A.)) into the Sac II site. Transfection of 20 ug of the plasmid DNA into 10 million COS cells was achieved by electroporation in 800 μl of transfection buffer (135 mM NaCl, 1.2 mM CaCl2, 1.2 mM MgCl2, 2.4 mM K2 HPO4, 0.6 mM KH2 PO4, 10 mM glucose, 10 mM N-2-hydroxyethyl-piperazine-N'-2-ethane sulphonic acid (HEPES) pH 7.4) at 260 V and 950 μF using the IBI GENEZAPPER (trademark IBI, New Haven, Conn., U.S.A.). The cells were incubated in 10% fetal calf serum, 2 mM glutamine, 100 U/ml penicillin-streptomycin, and 90% DMEM media (GIBCO, Grand Island, N.Y., U.S.A.) in 5% CO2 at 37° C. for three days before the binding assay.
To establish a stable cell line expressing cloned human NK1R, the cDNA was subcloned into the vector pRcCMV (INVITROGEN). Transfection of 20 ug of the plasmid DNA into CHO cells was achieved by electroporation in 800 μl of transfection buffer supplemented with 0.625 mg/ml Herring sperm DNA at 300 V and 950 μF using the IBI GENEZAPPER (IBI). The transfected cells were incubated. in CHO media [10% fetal calf serum, 100 U/ml penicillin-streptomycin, 2 mM glutamine, 1/500 hypoxanthinethymidine (ATCC), 90% IMDM media (JRH BIOSCIENCES, Lenexa, Kans., U.S.A.), 0.7 mg/ml G418 (GIBCO)] in 5% CO2 at 37° C. until colonies were visible. Each colony was separated and propagated. The cell clone with the highest number of human NK1R was selected for subsequent applications such as drug screening.
The binding assay of human NK1R expressed in either COS or CHO cells is based on the use of ^125 I-substance P (^125 I-SP, from DU PONT, Boston, Mass.) as a radioactively labeled ligand which competes with unlabeled substance P or any other ligand for binding to the human NK1R. […] The tubes were incubated at 4° C. or at room temperature for 1 hour with gentle shaking. The bound radioactivity was separated from unbound radioactivity by GF/C filter (BRANDEL, Gaithersburg, Md.) which was prewetted with 0.1% polyethylenimine. The filter was washed with 3 ml of wash buffer (50 mM Tris pH 7.5, 5 mM MnCl2, 150 mM NaCl) three times and its radioactivity was determined by gamma counter.

Sequence of human NK1R (P25103 whole entry): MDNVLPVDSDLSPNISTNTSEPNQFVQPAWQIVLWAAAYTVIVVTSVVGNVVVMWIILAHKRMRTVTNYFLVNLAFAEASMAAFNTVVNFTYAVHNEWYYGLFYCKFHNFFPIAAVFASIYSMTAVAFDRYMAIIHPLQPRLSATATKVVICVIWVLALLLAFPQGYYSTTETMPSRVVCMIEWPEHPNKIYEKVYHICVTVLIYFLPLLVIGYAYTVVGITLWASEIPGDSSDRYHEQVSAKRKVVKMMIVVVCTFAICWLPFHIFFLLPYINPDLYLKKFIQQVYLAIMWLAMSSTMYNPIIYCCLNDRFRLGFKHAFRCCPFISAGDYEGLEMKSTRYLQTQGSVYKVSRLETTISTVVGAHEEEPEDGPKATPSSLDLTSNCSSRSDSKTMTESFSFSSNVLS

pIC50	Compound
6.66	NC(C(=O)NCc1cc(C(F)(F)F)cc(C(F)(F)F)c1)C(c1ccccc1)c1ccccc1 (stereo not shown) [Example 67, 2-Amino-3,3-diphenyl-N-((3,5-bis(trifluoromethyl)phenyl)methyl)propionamide]
6.40	Cc1cc(CNCC(N)C(c2ccccc2)c2ccccc2)cc(C(F)(F)F)c1 (stereo not shown) [Example 68, 2-Ammonium-3,3-diphenyl-1-((3-methyl, 5-trifluoromethyl)phenyl)methylamino)propane oxalate salt]
7.46	CS(=O)(=O)NC(COCc1cc(C(F)(F)F)cc(C(F)(F)F)c1)C(c1ccccc1)c1ccccc1 (stereo not shown) [Example 69, 1-((3,5-Bis(trifluoromethyl)phenyl)methyloxy)-3,3-diphenyl-2-methylsulphonamidopropane]
8.15	CN(CC(N)=O)C(COCc1cc(C(F)(F)F)cc(C(F)(F)F)c1)C(c1ccccc1)c1ccccc1 (stereo not shown) [Example 72, 1-((3,5-Bis(trifluoromethyl)phenyl)methyloxy)-2-(N-((carboxamido)methyl)-N-methyl)ammonium-3,3-diphenylpropane oxalate salt]
